Patent US6355428B1, “Nucleic acid ligand interaction assays” (Genelabs Technologies, Inc., priority 1998, dated 2002)
Starred links: 1 amine or outer side, 2 acyl side, 3 side chain; linkers in the order of their positions; H or OH if unused. Positions of bridges follow the written chain, without caps; N, C: chain ends. Non-standard residues stand in square brackets, D forms with d. Residues, ends and D or L forms follow the SMILES beside them. Chains are numbered I, II in the order given. Actinocin(9to1) = Cc1c2oc3c(C)ccc(C(=O)[*:1])c3nc-2c(C(=O)[*:2])c(N)c1=O; NMeV = CN[C@H](C(=O)O)C(C)C; Sar = CNCC(=O)O

Tests used:
[1] = system: A/T rich, G/C rich and mixed sequence DNA oligonucleotides; experiment: SPA direct binding assay, sequence preference over panel of indicator oligonucleotides; conditions: A/T rich 5′-AAAATAATAAAG, G/C rich 5′-GGCGCGG, mixed 5′-GTTGCAGATC; increasing drug
Source text: This technology can be applied to studies of ligand binding as disclosed herein. […] These beads are impregnated with scintillant. The second oligonucleotide is labeled with a weak β-emitter, such as ^3H or ^33P. The radioactive second oligonucleotide is mixed with a solution of the beads under conditions at which the first and second oligonucleotides exist primarily as single strands, as described above. The signal will thus be low, as the oligonucleotides are non-hybridized. When ligand is added, the duplex form is stabilized, and the increased proximity of the radioactive isotope (e.g., ^3H, ^33P) in the second oligonucleotide causes the bead to which the first oligonucleotide is bound to scintillate. A signal thus indicates the presence of an effective binding ligand molecule; test sequences giving higher signals indicate the relative preference for different sequences.
Indicator oligonucleotides as shown in Table 1 were used in this assay, as shown in Table II and FIGS. 4A-E. One strand of each duplex was labeled with biotin at the 5′-end, and the complementary strand was 3′-labeled with ^33P. The two complementary strands were incubated with streptavidin-coated SPA beads (Amersham, Arlington Heights, Ill.) at room temperature in a buffer containing 20 mM HEPES, pH 7.5, 0.1 mM EDTA, and 20 mM NaCl. In the absence of ligand, and under these conditions, the oligonucleotides exist in single-stranded conformation. As a result, the oligonucleotide containing the radioactive label is not in close proximity to the SPA bead, and the light given off by the beads is low, i.e., at background. As a duplex-stabilizing ligand is added, the radioactive ^33P is brought into close proximity to the SPA bead, and the light emitted from the SPA bead increases.

[2] = system: F/Q indicator oligonucleotide pairs (Table I); experiment: Fluorescence quenching direct binding assay, panel of F/Q indicator oligonucleotide pairs; conditions: concentrations up to 5 μM; tRNA added
Method: (§1) The specific examples described in this section employ fluorescence quenching as the detection system. In these examples, because conditions are adjusted to maintain the oligonucleotides in single-stranded form in the absence of the ligand, the assay starts with the system at a high or maximum level of fluorescence, and fluorescence generally decreases, depending on binding affinity, as the ligand is added.
In the Figure legends, RNA oligonucleotides are denoted by an “r” at the beginning of the sequence, and single stranded controls by “ss” at the end of the sequence. These single stranded sequence, are used alone in control experiments, which thus employ only an “F” strand and no complementary quenching strand. Any quenching of fluorescence that is not due to hybridization can thus be acounted for. Maximum quenching expected on complete hybridization of these oligonucleotides is 85-90%; therefore some signal remains after complete hybridization. […]
According to the general method described above, increasing amounts of netropsin or actinomycin, respectively, were added to mixtures of selected F/Q indicator oligonucleotide pairs, whose sequences are shown in the legends of FIGS. 1 and 3. […] The Figures show the level of fluorescence observed, relative to a control having no added drug, for each indicator pair (or single strand) as the level of added drug was increased. […]

[3] = system: RNA 5′-rCUAGAUCUGA-3′ (SEQ ID NO: 23) double stranded RNA probe; experiment: Fluorescence quenching direct binding assay, RNA; conditions: increasing bekanomycin
Method: as §1
In the Figure legends, RNA oligonucleotides are denoted by an “r” at the beginning of the sequence, and single stranded controls by “ss” at the end of the sequence. These single stranded sequence, are used alone in control experiments, which thus employ only an “F” strand and no complementary quenching strand. Any quenching of fluorescence that is not due to hybridization can thus be acounted for. Maximum quenching expected on complete hybridization of these oligonucleotides is 85-90%; therefore some signal remains after complete hybridization. The signal is plotted so that it is normalized to the control signal in the absence of ligand.
Netropsin has been shown in previous studies to bind preferentially to A/T rich regions of DNA. […] Netropsin also binds well to the sequence 5′-GCGGTATTT-3′ (SEQ ID NO: 12), which is a useful “indicator” probe (as discussed below), having both C/G and A/T rich sequences. […]

Row | Structure (SMILES) | sequence preference of binding (FIGS. 4A-E) [1] | sequences bound (FIG. 3B) [2] | binding preference over all other test oligonucleotides (FIG. 3C) [3]
1 | COC(C(=O)C(O)C(C)O)C1Cc2cc3cc(OC4CC(OC5CC(O)C(OC)C(C)O5)C(OC(C)=O)C(C)O4)c(C)c(O)c3c(O)c2C(=O)C1OC1CC(OC2CC(OC3CC(C)(O)C(OC(C)=O)C(C)O3)C(O)C(C)O2)C(O)C(C)O1 (centres unmarked) [chromomycin A] | preferred GC-rich sequences | – | –
2 | Cc1c2oc3c(C)ccc(C(=O)N[C@@H]4C(=O)N[C@H](C(C)C)C(=O)N5CCC[C@H]5C(=O)N(C)CC(=O)N(C)[C@@H](C(C)C)C(=O)O[C@@H]4C)c3nc-2c(C(=O)N[C@@H]2C(=O)N[C@H](C(C)C)C(=O)N3CCC[C@H]3C(=O)N(C)CC(=O)N(C)[C@@H](C(C)C)C(=O)O[C@@H]2C)c(N)c1=O [actinomycin D] (I: T[dV]P[Sar][NMeV] / II: T[dV]P[Sar][NMeV]; ester I:1-I:C, II:1-II:C; linker I:N-II:N via Actinocin(9to1)) | preferred GC-rich sequences | binding only to the C/G containing sequences (SEQ ID NOS: 6, 8, and 12) | –
3 | CC(=O)NCC(=O)O.CC(=O)NCC(=O)O.N=C(N)c1ccc(N=NNc2ccc(C(=N)N)cc2)cc1 [berenil] | no strong preference | – | –
4 | NCC1OC(OC2C(N)CC(N)C(OC3OC(CO)C(O)C(N)C3O)C2O)C(N)C(O)C1O (centres unmarked) [Bekanomycin, bekanomycin] | – | – | very strong preference for the double stranded RNA probe
